According to ChEMBL document CHEMBL3621180, “Isolation of two new bioactive sesquiterpene lactone glycosides from the roots of Ixeris dentata” (Bioorg Med Chem Lett, 2015):

Tests used:
[1] = Cytotoxic activity against […] BV2 cells assessed as cell viability at 5 uM incubated for 24 hrs by MTT assay (reference value: 100%); assay type: cell-based, BV-2; details: read-out: Activity
[2] = Cytotoxic activity against […] BV2 cells assessed as cell viability at 20 uM incubated for 24 hrs by MTT assay (reference value: 100%); assay type: cell-based, BV-2; details: mouse, read-out: Activity
[3] = Antiinflammatory activity in […] BV2 cells assessed as inhibition of lipopolysaccharide-induced nitric oxide production at 5 uM incubated for 24 hrs by Griess reagent based assay (reference value: 20.3 +/- 0.1 uM); assay type: functional, BV-2
[4] = Antiinflammatory activity in […] BV2 cells assessed as inhibition of lipopolysaccharide-induced nitric oxide production at 20 uM incubated for 24 hrs by Griess reagent based assay (reference value: 20.3 +/- 0.1 uM); assay type: functional, BV-2

Row | Compound | viability at 24 h, 5 µM [1] [%] | viability at 24 h, 20 µM [2] [%] | Activity [3] [µM] | Activity [4] [µM]
1 | C=C1C(=O)O[C@@H]2[C@H]3C(=C)[C@@H](O[C@@H]4O[C@H](CO)[C@@H](O)[C@H](O)[C@H]4O)C[C@H]3C(=C)C[C@@H](OC(=O)C(O)C(C)C)[C@@H]12 (stereo not given in full) | 105 | 97.5 | 21.5 | 18.2
2 | C=C1[C@@H]2[C@H]3OC(=O)[C@@H](C)[C@@H]3CCC(=C)[C@@H]2C[C@@H]1O[C@@H]1O[C@H](CO)[C@@H](O)[C@H](O)[C@H]1O | 116 | 116 | 19.9 | 18.2
3 | C=C1C[C@@H](O)[C@@H]2[C@H](OC(=O)[C@H]2C)[C@H]2C(C)=C(O[C@@H]3O[C@H](CO)[C@@H](O)[C@H](O)[C@H]3O)C[C@@H]12 | 108 | 108 | 19.9 | 17.2
4 | C=C1C(=O)O[C@@H]2[C@H]3C(=C)[C@@H](O[C@@H]4O[C@H](CO)[C@@H](O)[C@H](O)[C@H]4O)C[C@H]3C(=C)C[C@@H](OC(=O)Cc3ccc(O)cc3)[C@@H]12 | 106 | 109 | 20.3 | 16.3
5 | C=C1C(=O)O[C@@H]2/C=C(\CO[C@@H]3O[C@H](CO)[C@@H](O)[C@H](O)[C@H]3O)CC/C=C(\C)CC[C@@H]12 | 105 | 103 | 20.1 | 18
6 | C=C1C(=O)O[C@@H]2[C@H]3C(C)=C(O[C@@H]4O[C@H](CO)[C@@H](O)[C@H](O)[C@H]4O)C[C@H]3C(=C)C[C@@H](OC(=O)Cc3ccc(O)cc3)[C@@H]12 | 106 | 103 | 18.2 | 9.3
7 | C=C1C(=O)O[C@@H]2[C@H]3C(=C)[C@@H](O[C@@H]4O[C@H](CO)[C@@H](O)[C@H](O)[C@H]4O)C[C@H]3C(=C)C[C@@H](O)[C@@H]12 | 104 | 103 | 19.8 | 17.6
8 | C=C1[C@@H]2[C@H]3OC(=O)[C@@H](C)[C@@H]3C[C@@H](O)C(=C)[C@@H]2C[C@@H]1O[C@@H]1O[C@H](CO)[C@@H](O)[C@H](O)[C@H]1O | 102 | 114 | 18.6 | 17.5
9 | CNC(=N)NCCC[C@H](N)C(=O)O [TILARGININE] | 112 | 108 | 20.1 | 14.1
10 | C=C1C[C@@H](O)[C@@H]2[C@H](OC(=O)[C@H]2C)[C@H]2[C@H](C)[C@@H](O[C@@H]3O[C@H](CO)[C@@H](O)[C@H](O)[C@H]3O)C[C@@H]12 | 103 | 103 | 19.6 | 19.4
11 | C=C1[C@@H]2[C@H]3OC(=O)C(=C)[C@@H]3C[C@@H](O)C(=C)[C@@H]2C[C@@H]1O[C@@H]1O[C@H](CO)[C@@H](O)[C@H](O)[C@H]1O | 110 | 110 | 19.7 | 18.7
12 | CC1=C2[C@H]3OC(=O)[C@@H](C)[C@@H]3CC[C@@]2(C)[C@H](O)CC1 | 110 | 110 | 17.9 | 17.7
13 | C/C1=C\CC/C(CO[C@@H]2O[C@H](CO)[C@@H](O)[C@H](O)[C@H]2O)=C/[C@H]2OC(=O)[C@@H](C)[C@@H]2CC1 | 113 | 107 | 19.6 | 18.8
14 | CC1=CC[C@@H](O[C@@H]2O[C@H](CO)[C@@H](O)[C@H](O)[C@H]2O)[C@]2(C)CC[C@@H]3[C@H](OC(=O)[C@H]3C)[C@@H]12 | 107 | 112 | 18.9 | 18.4
15 | C=C1[C@@H]2[C@H]3OC(=O)[C@@H](C)[C@@H]3[C@H](O)CC(=C)[C@@H]2C[C@@H]1O[C@@H]1O[C@H](CO)[C@@H](O)[C@H](O)[C@H]1O | 106 | 105 | 20.4 | 18
